Results reported in the supplement of paper PMC11061612.

What was measured:
AZD1390 = compound: CC(C)n1c(=O)n(C)c2cnc3cc(F)c(-c4ccc(OCCCN5CCCCC5)nc4)cc3c21 [AZD1390]; details: max 0.3 µM
Summary of the method: (§1)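 Viability was measured with CellTiter-Glo 2.0 luminescence after 72 hours of dosing at a final DMSO of typically 0.2%, and scaled between blank-well and DMSO-well means. Beforehand, cancer cell lines sat 24 hours at 37°C and 5% CO2 in 1536-well plates in 7.5 μl DMEM/F12 or RPMI with 10% FBS. A non-linear mixed effects model fitted two-parameter logistic curves to the dose responses. The single-agent IC50 comes from these fits.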

AZD5991 = compound: Cc1c2c(nn1C)CSCc1cc(n(C)n1)CSc1cc(c3ccccc3c1)OCCCc1c(C(=O)O)n(C)c3c-2c(Cl)ccc13 [AZD5991]; details: max 1 µM
Summary of the method: as §1

Alisertib = compound: COc1cc(Nc2ncc3c(n2)-c2ccc(Cl)cc2C(c2c(F)cccc2OC)=NC3)ccc1C(=O)O [Alisertib]; details: max 10 µM
Summary of the method: as §1

Lapatinib = compound: CS(=O)(=O)CCNCc1ccc(-c2ccc3ncnc(Nc4ccc(OCc5cccc(F)c5)c(Cl)c4)c3c2)o1 [Lapatinib]; details: max 10 µM
Summary of the method: as §1

AZD7648 = compound: Cc1cc2ncnn2cc1Nc1ncc2c(n1)n(C1CCOCC1)c(=O)n2C [AZD7648]; details: max 10 µM
Summary of the method: as §1

Savolitinib = compound: C[C@@H](c1ccc2nccn2c1)n1nnc2ncc(-c3cnn(C)c3)nc21 [Savolitinib]; details: max 1 µM
Summary of the method: as §1

AZD5153 = compound: COc1nnc2ccc(N3CCC(c4ccc(OCCN5CCN(C)C(=O)[C@H]5C)cc4)CC3)nn12 [AZD5153]; details: max 1 µM
Summary of the method: as §1

AZD2811 = compound: CCN(CCO)CCCOc1ccc2c(Nc3cc(CC(=O)Nc4cccc(F)c4)[nH]n3)ncnc2c1 [AZD2811]; details: max 1 µM
Summary of the method: as §1

AZD1775 = compound: C=CCn1c(=O)c2cnc(Nc3ccc(N4CCN(C)CC4)cc3)nc2n1-c1cccc(C(C)(C)O)n1 [AZD1775]; details: max 3 µM
Summary of the method: as §1

AZD0156 = compound: CN(C)CCCOc1ccc(-c2ccc3ncc4c(c3c2)n(C2CCOCC2)c(=O)n4C)cn1 [AZD0156]; details: max 3 µM
Summary of the method: as §1

Taselisib = compound: Cc1nc(-c2cn3c(n2)-c2ccc(-c4cnn(C(C)(C)C(N)=O)c4)cc2OCC3)n(C(C)C)n1 [Taselisib]; details: max 10 µM
Summary of the method: as §1

SG3199 = compound: CC1=CN2[C@@H](C1)C=NC3=CC(=C(C=C3C2=O)OC)OCCCCCOC4=C(C=C5C(=C4)N=C[C@@H]6CC(=CN6C5=O)C)OC [SG3199]; details: max 0.001 µM
Summary of the method: as §1

Dasatinib = compound: CC1=C(C(=CC=C1)Cl)NC(=O)C2=CN=C(S2)NC3=CC(=NC(=N3)C)N4CCN(CC4)CCO [Dasatinib]; details: max 2 µM
Summary of the method: as §1

Prexasertib = compound: COc1cccc(OCCCN)c1-c1cc(Nc2cnc(C#N)cn2)n[nH]1 [Prexasertib]; details: max 1 µM
Summary of the method: as §1

Olaparib = compound: O=C(c1cc(Cc2n[nH]c(=O)c3ccccc23)ccc1F)N1CCN(C(=O)C2CC2)CC1 [Olaparib]; details: max 10 µM
Summary of the method: as §1

Crizotinib = compound: C[C@@H](Oc1cc(-c2cnn(C3CCNCC3)c2)cnc1N)c1c(Cl)ccc(F)c1Cl [Crizotinib]; details: max 10 µM
Summary of the method: as §1

AZD4320 = compound: CN(CC[C@H](CSC1=CC=CC=C1)NC2=C(C=C(C=C2)S(=O)(=O)NC(=O)C3=CC=C(C=C3)N4CCC(CC4)[C@H](C5=CC=CC=C5C6=CC=C(C=C6)Cl)O)S(=O)(=O)C(F)(F)F)CCO [AZD4320]; details: max 1 µM
Summary of the method: as §1

SN-38 = compound: CCc1c2c(nc3ccc(O)cc13)-c1cc3c(c(=O)n1C2)COC(=O)[C@]3(O)CC [SN-38]; details: max 0.3 µM
Summary of the method: as §1

Doxorubicin = compound: COc1cccc2c1C(=O)c1c(O)c3c(c(O)c1C2=O)C[C@@](O)(C(=O)CO)C[C@@H]3O[C@H]1C[C@H](N)[C@H](O)[C@H](C)O1 [Doxorubicin]; details: max 1 µM
Summary of the method: as §1

Venetoclax = compound: CC1(C)CCC(CN2CCN(c3ccc(C(=O)NS(=O)(=O)c4ccc(NCC5CCOCC5)c([N+](=O)[O-])c4)c(Oc4cnc5[nH]ccc5c4)c3)CC2)=C(c2ccc(Cl)cc2)C1 [Venetoclax]; details: max 1 µM
Summary of the method: as §1

Capivasertib = compound: C1CN(CCC1(C(=O)N[C@@H](CCO)C2=CC=C(C=C2)Cl)N)C3=NC=NC4=C3C=CN4 [Capivasertib]; details: max 10 µM
Summary of the method: as §1

Palbociclib = compound: CC(=O)c1c(C)c2cnc(Nc3ccc(N4CCNCC4)cn3)nc2n(C2CCCC2)c1=O [Palbociclib]; details: max 10 µM
Summary of the method: as §1

AZD6738 = compound: C[C@@H]1COCCN1C2=NC(=NC(=C2)C3(CC3)[S@](=N)(=O)C)C4=C5C=CNC5=NC=C4 [AZD6738]; details: max 10 µM
Summary of the method: as §1

AZD8186 = compound: C[C@@H](Nc1cc(F)cc(F)c1)c1cc(C(=O)N(C)C)cc2c(=O)cc(N3CCOCC3)oc12 [AZD8186]; details: max 3 µM
Summary of the method: as §1

Trametinib = compound: CC(=O)Nc1cccc(-n2c(=O)n(C3CC3)c(=O)c3c(Nc4ccc(I)cc4F)n(C)c(=O)c(C)c32)c1 [Trametinib]; details: max 1 µM
Summary of the method: as §1

Selumetinib = compound: Cn1cnc2c(F)c(Nc3ccc(Br)cc3Cl)c(C(=O)NOCCO)cc21 [Selumetinib]; details: max 10 µM
Summary of the method: as §1

Gefitinib = compound: COc1cc2ncnc(Nc3ccc(F)c(Cl)c3)c2cc1OCCCN1CCOCC1 [Gefitinib]; details: max 10 µM
Summary of the method: as §1

Cell Line | IC50, cell viability 72 h (AZD1390) | IC50, cell viability 72 h (AZD5991) | IC50, cell viability 72 h (Alisertib) | IC50, cell viability 72 h (Lapatinib) | IC50, cell viability 72 h (AZD7648) | IC50, cell viability 72 h (Savolitinib) | IC50, cell viability 72 h (AZD5153) | IC50, cell viability 72 h (AZD2811) | IC50, cell viability 72 h (AZD1775) | IC50, cell viability 72 h (AZD0156) | IC50, cell viability 72 h (Taselisib) | IC50, cell viability 72 h (SG3199) | IC50, cell viability 72 h (Dasatinib) | IC50, cell viability 72 h (Prexasertib) | IC50, cell viability 72 h (Olaparib) | IC50, cell viability 72 h (Crizotinib) | IC50, cell viability 72 h (AZD4320) | IC50, cell viability 72 h (SN-38) | IC50, cell viability 72 h (Doxorubicin) | IC50, cell viability 72 h (Venetoclax) | IC50, cell viability 72 h (Capivasertib) | IC50, cell viability 72 h (Palbociclib) | IC50, cell viability 72 h (AZD6738) | IC50, cell viability 72 h (AZD8186) | IC50, cell viability 72 h (Trametinib) | IC50, cell viability 72 h (Selumetinib) | IC50, cell viability 72 h (Gefitinib)
GOTO (Neuroblastoma) | > 300 nM | 398 nM | 272 nM | 6070 nM | > 10000 nM | > 1000 nM | 91.7 nM | 332 nM | 650 nM | > 3000 nM | 4550 nM | > 1 nM | > 2000 nM | 11.8 nM | > 10000 nM | 1640 nM | > 1000 nM | 3.91 nM | 193 nM | > 1000 nM | > 10000 nM | 7010 nM | 592 nM | > 3000 nM | > 1000 nM | > 10000 nM | > 10000 nM
HC-1 (Other Blood Carcinomas) | > 300 nM | > 1000 nM | 752 nM | > 10000 nM | > 10000 nM | > 1000 nM | 858 nM | 884 nM | 187 nM | > 3000 nM | 2640 nM | > 1 nM | 1680 nM | 6.96 nM | > 10000 nM | > 10000 nM | 793 nM | 4.53 nM | 151 nM | > 1000 nM | > 10000 nM | 9650 nM | 4320 nM | > 3000 nM | > 1000 nM | > 10000 nM | > 10000 nM
HuP-T3 (Pancreatic Carcinoma) | > 300 nM | > 1000 nM | > 10000 nM | > 10000 nM | > 10000 nM | > 1000 nM | > 1000 nM | > 1000 nM | 1610 nM | > 3000 nM | > 10000 nM | > 1 nM | 791 nM | 166 nM | > 10000 nM | > 10000 nM | > 1000 nM | 235 nM | > 1000 nM | > 1000 nM | > 10000 nM | > 10000 nM | > 10000 nM | > 3000 nM | 567 nM | > 10000 nM | > 10000 nM
IMR-5 (Neuroblastoma) | > 300 nM | 107 nM | 18.3 nM | > 10000 nM | > 10000 nM | > 1000 nM | 69.6 nM | 18.2 nM | 498 nM | > 3000 nM | > 10000 nM | > 1 nM | > 2000 nM | 13.6 nM | > 10000 nM | 2210 nM | 546 nM | 1.9 nM | 64.9 nM | > 1000 nM | > 10000 nM | 6630 nM | 2190 nM | > 3000 nM | > 1000 nM | > 10000 nM | > 10000 nM
